In patent US9532569B2 (INSTITUT NATIONAL DE LA RECHERCHE AGRONOMIQUE, priority 2012, dated 2017):

Experiments:
[1] = system: Phelipanche ramosa pv T; experiment: Germinative activity on parasitic plants; type: in vivo; details: counted after 4 days
Experimental: (§1) In this example, the germinative activity of the compounds in accordance with the invention (IIa) and (IIIb) and of the comparative compound GR24 was evaluated on the parasitic plants: Orobanche cumana, Orobanche minor, Striga hermonthica, Phelipanche ramosa (pv T and pv C).
(§2) The test protocol used was the following.
(§3) Two populations of Phelipanche ramosa were used in this study, pathovar (pv) C and T, described in the publication by Benharrat et al. (2005). Seeds of Phelipanche ramosa pathovar C were collected at Saint Martin de Fraigneau, France, on broomrapes parasitizing winter oilseed rape (Brassica napus L.) in 2005 and seeds of Phelipanche ramosa pathovar T were collected in Sarthe, France, on broomrapes developing on hemp (Cannabis sativa L.) in 2007.
(§4) The seeds are stored dry in the dark at 25° C.
(§5) The compounds to be studied were resuspended in acetone at 10 mmol·l^−1, then diluted with water to 1 mmol·l^−1 (water/acetone; v/v; 99/1). Dilutions of 1×10^−3 mol·l^−1 to 1×10^−15 mol·l^−1 were then prepared in a water/acetone mixture (v/v; 99/1). Seeds of parasitic plants were surface-sterilized according to the protocol described in the publication by Vieira Dos Santos et al. (2003), then resuspended in sterile water (10 g·l^−1) and distributed on a 96-well plate (in a proportion of 50 μl, i.e. approximately 100 seeds per well). After preconditioning (7 days, 21° C., in the dark, plate hermetically sealed, except for the seeds of S. hermonthica, which were preconditioned at 30° C.), the compounds to be studied were added and the volumes adjusted to 100 μl with water (water/acetone; v/v; 999/1).
(§6) In a plate, a range of concentrations from 10^−13 mol·l^−1 to 10^−6 mol·l^−1 was applied for GR24 and (IIa) and from 10^−12 to 10^−5 mol·l^−1 for (IIIb). Controls were carried out with a water/acetone mixture (v/v; 999/1) and without seeds. The plates were incubated so as to allow germination (21° C., in the dark or 30° C. for Striga hermonthica.). After 4 days, the seeds which had germinated were counted under a stereomicroscope (SZX10, Olympus). The seeds were considered to have germinated when the radicle was sticking out of the seed tegument. Each germination test was repeated at least 3 times. For each compound tested, dose-response curves (g=f(c), where g is the germination percentage and c the concentration (mol·l^−1)), and the EC50 (median effective concentration) were modeled on the basis of a 4-parameter logistic curve calculated with SigmaPlot® 10.0.
(§7) The percentages of maximum germination induced by the compounds tested for each parasitic plant were determined.

[2] = system: Phelipanche ramosa pv C; experiment: Germinative activity on parasitic plants; type: in vivo; details: counted after 4 days
Experimental: as §1, §2, §3, §4, §5, §6, §7

[3] = system: pea rms4 mutant; type: in vivo, Pisum sativum L.
Experimental: The protocol used is in accordance with that described in example 4 above. Compound concentrations of 100 nM and 3 μM were tested. A negative control consisting of the solvent alone (<<CTL 0>>) was also tested.
The number of dead buds following the treatment with 3 μM of compound was also determined after 8 days of treatment (on groups of 48 plants).

[4] = system: Striga hermonthica; experiment: Germinative activity on parasitic plants; type: in vivo; details: counted after 4 days, 30° C.
Experimental: as §1, §2
Seeds of Striga hermonthica (Del.) Benth were collected at Gadarif, Eastern Sudan, in 1999.
as §4, §5
as §6, with “The seeds were considered to have germinated when the radicle was sticking out of the seed tegument. Each germination test was repeated at least 3 times.” left out
as §7

[5] = system: Orobanche cumana; experiment: Germinative activity on parasitic plants; type: in vivo; details: counted after 4 days
Experimental: as §1, §2
(§8) Seeds of Orobanche cumana Wallr. were collected from broomrapes parasitizing sunflower (Helianthus annuus L.), at Longeville-sur-mer, France, in 2009; seeds of clover broomrape (Orobanche minor Sm.) from a parasite of red clover (Trifolium pratense L.) were obtained from Professor K. Yoneyama (Utsunomiya University, Japan).
as §4, §5, §6, §7

[6] = system: Orobanche minor; experiment: Germinative activity on parasitic plants; type: in vivo; details: counted after 4 days
Experimental: as §1, §2, §8, §4, §5, §6, §7

[7] = Stability in aqueous medium (UPLC, % nondegraded compound); type: physicochemical; details: second experiment, longer incubation times; 50 μg/ml in methanol/water: 1/4, pH 6.7, 21° C.; FIG. 2
Experimental: The stability in aqueous medium of the compound (IIa) according to the invention and that of GR24 as comparative compound was evaluated in the following way.
Each compound was diluted in acetone (1 ml), then 50 μl of each solution were diluted with methanol (175 μl) and water (750 μl) so as to obtain a compound concentration of 50 μg/ml.
The aqueous solution thus obtained was incubated at 21° C. in HPLC vials.
Indanol (25 μl of a solution at 1 mg/ml in acetone) was added to each solution in order to serve as an internal standard.
The degradation of each compound over time was monitored by analysis of samples taken from the solution at various time intervals, by Ultra Performance Liquid Chromatograpy (UPLC) by means of an Acquity UPLC HSS C18 column (1.8 μm, 2.1×50 mm), eluted first of all with a solution of acetonitrile at 5% in water containing 0.1% of formic acid, for 0.5 min, then with a gradient of 5% to 100% of acetonitrile in water containing 0.1% of formic acid, for 6.5 min, and with 100% of acetonitrile containing 0.1% of formic acid for 3 min. The column was maintained at a temperature of 40° C., with a flow of 0.6 ml/min.
The compounds eluted from the column were detected with a photodiode array detector.
The relative amount of nondegraded compound in the solution was determined by comparison with the internal standard.
In a second experiment, the stability in aqueous medium of the compounds (IIa) and (IIIb) according to the invention, and that of GR24 as comparative compound, was evaluated according to the protocol described above.

## COC(=O)/C=C/C(C)=C/OC1OC(=O)C(C)=C1C (centres unmarked) [Compound (IIIb)]
[1]
  Percentage of maximum germination induced: 88 ± 6%
[2]
  Percentage of maximum germination induced: no (no significant germination compared to the negative control (<2%))
[3]; 100 nM and 3 μM, 8 days after treatment at node 3, FIG. 15
  length of bud/branch at node 3 (toxicity): absence of effects of the compounds in accordance with the invention (IIa) and (IIIb) compared with a negative control, and between the two treatment doses
[3]; 3 μM, 8 days of treatment, groups of 48 plants, FIG. 16
  number of dead buds after treatment: did not cause the death of any bud
[4]
  Percentage of maximum germination induced: no (no significant germination compared to the negative control (<2%))
[5]
  Percentage of maximum germination induced: no (no significant germination compared to the negative control (<2%))
[6]
  Percentage of maximum germination induced: 60 ± 6%
[7]
  chemical stability in aqueous solution (% of nondegraded compound as a function of incubation time): even better than that of the compound (IIa)
